According to patent publication US20250295795A1, “PEPTIDE” (priority 2021, published 2025):
Entries after “also recorded” stand apart in the source; their conditions may differ. No end group written: not given here.

How the values were obtained:
CHO cells = experiment: Live cell confocal microscopy: cellular uptake and intracellular distribution of Tat conjugates in CHO cells; format: cell-based, Chinese hamster; conditions: 60 min, post-wash
Description: (§1) The cellular uptake and intracellular distribution of Tat-trimers and monomeric controls was investigated by performing live cell confocal microscopy of HeLa (human, cervical cancer) and CHO (Chinese hamster, epithelial) cells incubated with Tat conjugates (1 μM) in serum-free DMEM (60 min). Following washing, images were acquired using a Zeiss 780 confocal microscope fitted with an incubation chamber (FIG. 2). In accordance with observations that free Tat in the cytosol readily enters the nucleus and strongly binds to nucleoli,^29 homogenous staining of cytoplasm and nucleoli were considered as indicative of cells having accumulated free conjugate, not confined to endosomes, for quantification purposes. […] The uptake and intracellular distribution of tri-Tat A is similar in live Hela and CHO cells (FIG. 2b,d,e).
(§2) HeLa and CHO cells were cultured in DMEM supplemented with 10% FBS and penicillin/streptomycin. For post-wash experiments, Tat conjugate was added to the cells in serum free medium, cells incubated at 37° C. in an atmosphere of 5% CO2, culture medium removed at the desired time point, cells washed and transferred to the microscope for imaging. For time course or pre-wash experiments, cells were transferred to the microscope (incubation chamber at 37° C., 5% CO2) and Tat conjugate added directly to cell medium and cells imaged at desired time points. Co-delivery experiments were conducted by adding peptide trimer immediately followed by cargo into serum free medium. Samples were visualised using a Zeiss LSM 780 inverted confocal microscope fitted with a XLmultiS1 incubation chamber and Plan-Apochromat 63×/1.40 Oil DIC M27 objective. Images were analysed using ImageJ software. Digital adjustments and image processing are consistent throughout the manuscript, unless otherwise stated in the figure legend. Statistical analysis was carried out using GraphPad Prism 7 software and all data used for statistical analysis consists of measurements from distinct cells. Where applicable a parametric, unpaired, two-tailed t-test was used for statistical testing.

HeLa cells [1] = experiment: Co-delivery of antibodies, antibody fragments and RFP into live Hela cells; format: cell-based, human; conditions: 1 μM peptide
Text: Access to the cytosol by mechanisms that are independent of transmembrane pore formation constitutes a preferred method of co-delivery due to reduced toxicity to the cell. […] Successful delivery of Fab is indicated by homogenous distribution of AF647 signal in the cytosol and nucleus and is only observed in cells which have been transduced with tri-cTat B (FIG. 13). Time course of Fab uptake by tri-cTat B (FIG. 5c) follows a similar pattern as tri-cTat B alone (FIG. 3b, d). Tri-cTat B and Fab form large vesicle-like bodies that appear to release their contents into the cytosol of the cell; unambiguous cytosolic staining by Fab is observed from 23 min. Interaction between peptide trimer and biomacromolecule, mediated by charge-charge interactions is essential for the accumulation of both in endosomes and subsequent release and delivery of cargo into cells. Delivery of relatively β-sheet rich, neutrally charged recombinant RFP was unsuccessful (FIG. 16) due to a lack of association between tri-cTat B and cargo (FIG. 17). On the other hand, interaction diminishes the efficacy of the peptide trimer due to charge masking, emphasising the need to maintain an appropriate peptide to cargo ratio for a given macromolecule. Experiments to explore the efficacy of tri-cTat B in the presence of serum supplemented medium underline this principle; while tri-cTat B continues to function in the presence of serum, the number of transduced cells diminishes (42% (serum) vs. 61% (serum free)), but can be restored by increasing tri-cTat B concentration to 2 μM (79% (serum); FIG. 15). […] This is likely due to the larger size of antibodies and also to the observation that antibodies have a greater tendency to aggregate in the presence of tri-cTat B compared to Fab fragments. […] Finally, we investigated whether it is possible to deliver functional antibodies and antibody fragments into the cytosol and nuclei of cells. β-actin was chosen as a proof-of-principle protein because of its abundance in the cell and formation of distinctive subcellular filaments. To clearly identify actin filaments, Hela cells were transfected with red fluorescent protein fused to actin (actin-RFP) before being incubated with β-actin antibody (mouse IgG2b) or β-actin Fab fragment (mouse) conjugated to AF647 plus tri-cTat B for 30 min. After washing, cells were left for 60 min to allow IgG/Fab to bind to actin filaments. […] To enable objective quantification of co-localization between β-actin filaments and IgG/Fab fragment (white arrows), a co-localization threshold algorithm was used in selected regions of interest (ROI). Pearson's and Manders' coefficients were obtained under Costes' automatic threshold^32 and the co-localized pixels are shown as a mask of yellow pixels of constant intensity (co-localization panels). The significance of the co-localization parameters (Pearson's and Manders' coefficients) was evaluated using the confined displacement algorithm (CDA).
as §2, with “Statistical analysis was carried out using GraphPad Prism 7 software and all data used for statistical analysis consists of measurements from distinct cells. Where applicable a parametric, unpaired, two-tailed t-test was used for statistical testing.” left out

HeLa cells [2] = experiment: Live cell confocal microscopy: cellular uptake and intracellular distribution of Tat conjugates in HeLa cells; format: cell-based, human; conditions: HeLa cells, 60 min, post-wash
Description: as §1, with “[…]).” for “epithelial) cells incubated with Tat conjugates (1 μM) in serum-free DMEM (60 min).”
Following washing, images were acquired using a Zeiss 780 confocal microscope fitted with an incubation chamber. In accordance with observations that free Tat in the cytosol readily enters the nucleus and strongly binds to nucleoli,^29 homogenous staining of cytoplasm and nucleoli were considered as indicative of cells having accumulated free conjugate, not confined to endosomes, for quantification purposes. The results were compared to tri-Tat A (8) and tri-cTat B (17).
as §2

HeLa cells [3] = experiment: Membrane integrity / porosity: propidium iodide uptake after trimer treatment; format: cell-based, human; conditions: 1 μM trimer; 40 μM PI added 20 min after trimer
Description: To assess membrane integrity, 40 μM propidium iodide (PI; a cell impermeable dye), was added to Hela cells 20 min after the addition of the peptide trimer.

HeLa cells [4] = experiment: Time course of uptake in Hela cells (continuous live cell confocal microscopy, ROI profile analysis); format: cell-based, human; conditions: 1 μM
Description: To better understand the mechanism by which tri-Tat A and tri-cTat B enter the cytosol and the nucleus, we investigated the uptake kinetics of the conjugates during the first 15 min after their addition to Hela cells using confocal live cell microscopy. Tri-Tat A (FIG. 3a) or tri-cTat B (FIG. 3b) (1 μM) were added to the cells and images acquired from 1 min to 15 min at 60 sec intervals. The two trimers show distinct uptake patters into Hela cells; to better understand the difference in uptake kinetics, we drew cross sectional profile plots through representative cells treated with tri-Tat A (FIG. 3c) and tri-cTat B (FIG. 3d). […] To investigate whether findings in individual cells also apply to larger populations, we extended the plot profile analysis by designating regions of interest (ROI) corresponding to plasma membrane, cytosol (excluding endosomes), nucleus, and nucleoli along the cross section, using information from brightfield images.^30 Average fluorescence intensities for each ROI, at each time point, in six cells per treatment group were calculated and plotted in FIGS. 3e-3h.
as §2

[5] = MTT assay of metabolic activity (cell viability); format: cell-based; conditions: human, HeLa cells, 1 μM for 60 min
Description: Toxicity is a concern with potent intracellular delivery agents. We used an MTT assay to measure the metabolic activity of Hela cells treated with 1 μM tri-Tat A or tri-cTat B for 60 min (FIG. 4d). […] Tri-Tat A is slightly more toxic, which is consistent with the observation that the trimer forms membrane pores (cells 84.4% viable, 4 h post-treatment; 80.2% viable, 3 days post-treatment). The favourable uptake mechanism and low toxicity of tri-cTat B lead us to investigate this agent for its potential to transport biomacromolecular cargos into cells.

Compound	cellular uptake and intracellular distribution (CHO cells; 1 μM, serum-free DMEM)	cellular uptake and intracellular distribution (CHO cells; 10 μM)	cellular uptake of Fab in the presence of the peptide (HeLa cells [1]; Fab-AF647, 30 min)	cellular uptake of IgG in the presence of the peptide (HeLa cells [1]; IgG-AF647, 45 min)	cellular uptake and intracellular distribution (HeLa cells [2]; 1 μM, serum-free DMEM)	cellular uptake and intracellular distribution (HeLa cells [2]; 10 μM)	propidium iodide (PI) uptake / pore formation (HeLa cells [3])	time after which cytosolic signal increases rapidly (HeLa cells [4]) [min]	cytosolic signal relative to tri-cTat B (factor) (HeLa cells [4]; at 15 min, p<0.05)	association with plasma membrane (profile plots) (HeLa cells [4]; representative cells)	association with the plasma membrane relative to tri-cTat B (HeLa cells [4]; t=1 to 15 min, p<0.05)	viability at 4 h, 1 µM ([5]; 4 h post-treatment) [%]	viability at 72 h, 1 µM ([5]; 3 days post-treatment) [%]
mono-Tat: monomeric control: linear Tat (49-57) peptide labelled with AF488 (RKKRRQRRR; also: AF488 label, place not given here; UniProt P04608 49-57, looked up, fragment)	not taken up	no cytosolic uptake or nucleolar staining; also recorded: taken up only into endosomes	no cellular uptake	no cellular uptake	not taken up	no cytosolic uptake or nucleolar staining; also recorded: taken up only into endosomes	–	–	–	–	–	–	–
tri-Tat B: AF488-labelled trimer of linear Tat (49-57) peptide on alkyne functionalized scaffold B (RKKRRQRRR; also: trimer on alkyne functionalized scaffold B, AF488 label, place not given here; UniProt P04608 49-57, looked up, fragment)	no evidence of cytosolic uptake or nucleolar staining; also recorded: only taken up into endosomes	–	–	–	no evidence of cytosolic uptake or nucleolar staining; also recorded: only taken up into endosomes	–	–	–	–	–	–	–	–
N=C(N)NCCC[C@H](NC(=O)[C@H](CCCNC(=N)N)NC(=O)[C@H](CCCNC(=N)N)NC(=O)[C@H](CCC(N)=O)NC(=O)[C@H](CCCNC(=N)N)NC(=O)[C@H](CCCNC(=N)N)NC(=O)[C@H](CCCCN)NC(=O)[C@H](CCCCN)NC(=O)[C@H](CCCNC(=N)N)NC(=O)CCCc1cn(CC(Cn2cc(CCCC(=O)N[C@@H](CCCNC(=N)N)C(=O)N[C@@H](CCCCN)C(=O)N[C@@H](CCCCN)C(=O)N[C@@H](CCCNC(=N)N)C(=O)N[C@@H](CCCNC(=N)N)C(=O)N[C@@H](CCC(N)=O)C(=O)N[C@@H](CCCNC(=N)N)C(=O)N[C@@H](CCCNC(=N)N)C(=O)N[C@@H](CCCNC(=N)N)C(N)=O)nn2)(Cn2cc(CCCC(=O)N[C@@H](CCCNC(=N)N)C(=O)N[C@@H](CCCCN)C(=O)N[C@@H](CCCCN)C(=O)N[C@@H](CCCNC(=N)N)C(=O)N[C@@H](CCCNC(=N)N)C(=O)N[C@@H](CCC(N)=O)C(=O)N[C@@H](CCCNC(=N)N)C(=O)N[C@@H](CCCNC(=N)N)C(=O)N[C@@H](CCCNC(=N)N)C(N)=O)nn2)Cn2cc(CNC(=O)c3ccc4c(c3)C(=O)OC43c4ccc(N)c(S(=O)(=O)O)c4Oc4c3ccc(N)c4S(=O)(=O)O)nn2)nn1)C(N)=O (some centres unmarked) [tri-Tat A]	homogenous cytosolic uptake and nucleolar staining; also recorded: taken up into the cytosol and nucleoli	–	–	–	homogenous cytosolic uptake and nucleolar staining; also recorded: taken up into the cytosol and nucleoli	–	significantly higher; also recorded: co-stain with PI	~12	2	initial strong association	approximately three	84.4	80.2
